Data reported in patent US5935945A, “Methods of treating or preventing cardiac arrhythmia” (Merck & Co., Inc., priority 1997, dated 1999).
Like-named read-outs stand apart in the source and are kept apart here.

How the values were obtained:
hKv1.5 = molecular target: T1, hKv1.5 (Homo sapiens, UniProt P22460); assay: Voltage-clamp measurement of hKv1.5 current expressed in Chinese hamster ovary (CHO) cells; assay type: cell-based; conditions: rested state block, first pulse; 150 ms pulses to +40 mV from -80 mV; room temperature (22-24° C); read-out: Rested State IC50, CHO Cells Expressing hKv1.5
T1 construct: expressed in transfected cells
Experimental: Expression of Kv1.5 in CHO Cells
CHOKI cells were plated at 2.7×10^4 cells/60 mm dish and incubated at 37° C., in a 5% CO2 environment for three days. Cells were then washed twice and covered with 3 ml of OptiMEM medium (Gibco). Plasmid/DOTAP solution (consisting of […] of Kv1.5 in pcDNAI/Neo and […] DOTAP transfection reagent (Boehringer Mannheim) in 1 ml of OptiMEM) was added dropwise to each plate while swirling. Plates were incubated overnight and the media then changed to 5 mls of F12 (Gibco) supplemented with 10% FBS (Sigma), 1,000 U/ml penicillin […] streptomycin (Gibco), and 2 mM glutamine (Gibco). After two more days, the cells were trypsinized and replated on 100 mm dishes in supplemented F12 media including 1 mg/ml G418 (Gibco). The medium was changed daily until nontransfected cells were killed. Cell lines were grown from individual clones and tested for expression of Kv1.5 using both the ^86 RB efflux assay and voltage clamp protocols. […] These cells were maintained in culture and on each experimental day were freshly isolated by mild trypsinization.
The patch-clamp technique was used to record ionic currents in the whole-cell configuration. Patch pipettes were obtained using a two stage puller from square bore (1.0 mm o.d.) borosillicate capillary tubing. Pipettes were filled with the following solution (in mM/L): 110 K-Gluconate or K-Aspartate, 20 KCl, 5 MgATP, 5 EGTA, 5-10 HEPES, pH 7.2. […] Following seal formation, the membrane was ruptured by gentle suction to establish the whole-cell configuration, and negative pressure was maintained on the pipette using a 1 ml gas-tight syringe attached via air tight tubing to the suction port of the microelectrode holder.
Kv1.5 currents were elicited by 150 ms depolarizing test pulses to +40 mV from a holding potential of -80 mV. The effects of test agents were assessed at steady-state. Data was analyzed as % block from control current amplitude. […] All experiments were performed at room temperature (22-24° C.). […]

T1 sequence (P22460 whole entry): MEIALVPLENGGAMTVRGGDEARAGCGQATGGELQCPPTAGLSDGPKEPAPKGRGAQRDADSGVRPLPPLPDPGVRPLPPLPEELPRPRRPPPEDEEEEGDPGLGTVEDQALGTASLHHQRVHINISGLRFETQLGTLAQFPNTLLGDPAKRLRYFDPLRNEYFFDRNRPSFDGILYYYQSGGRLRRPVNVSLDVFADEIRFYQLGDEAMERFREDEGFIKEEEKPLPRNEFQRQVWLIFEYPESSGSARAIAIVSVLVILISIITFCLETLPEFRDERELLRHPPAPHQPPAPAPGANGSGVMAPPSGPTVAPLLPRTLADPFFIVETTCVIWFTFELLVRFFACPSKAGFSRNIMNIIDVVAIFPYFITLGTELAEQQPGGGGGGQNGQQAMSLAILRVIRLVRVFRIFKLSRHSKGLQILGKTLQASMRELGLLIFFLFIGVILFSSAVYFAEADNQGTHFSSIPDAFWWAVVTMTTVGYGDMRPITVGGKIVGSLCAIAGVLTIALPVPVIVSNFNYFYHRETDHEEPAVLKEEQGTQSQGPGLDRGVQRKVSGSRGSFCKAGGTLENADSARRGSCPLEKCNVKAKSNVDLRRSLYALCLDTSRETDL
Experimental for atrial flutter: In this model, atrial flutter was induced following a Y-shaped surgical lesion comprised of an intercaval incision and a connecting incision across the right atrium. […] Bipolar electrodes also were sutured to the left ventricle for measurement of ventricular excitation threshold (VET) and ventricular relative (VRRP at 2× VET) and effective refractory periods (VERP at 10×VET). The following cardiac electrophysiologic parameters also were measured before test agent administration and at the termination of the study: AH interval, an index of AV nodal conduction; HV interval, an index of His-ventricular conduction time; P-A interval, an index of intra-atrial conduction; and H-EG interval, an index of ventricular conduction; and paced ECG QT interval. AV nodal functional refractory period (AVNFRP) and SA conduction time (SACT) were determined by the introduction of atrial extrastimuli during sinus rhythm, and the monitoring of ventricular response. Electrocardiographic intervals were determined during sinus rhythm; the rate-corrected ECG QTc interval was calculated as: QTc=QT (msec)/√R-R (sec).
Sustained atrial flutter was initiated in three dogs by electrical burst pacing (6-20 Hz) of the atria; atrial rates ranged from 440-530 cycles/min.

IC50 (hKv1.5) [nM]	Structure (SMILES)	atrial effective refractory period, post-treatment (atrial flutter; at doses effective in terminating atrial arrhythmia, increase from 138±5 msec pretreatment) [ms]	effect on atrioventricular nodal or ventricular function (atrial flutter; dog, in vivo)	time to termination of atrial arrhythmia after test agent administration (atrial flutter; i.v. bolus 3 mg/kg (two dogs) or 10 mg/kg (third dog)) [s]	atrial rate during atrial flutter (atrial flutter; i.v. bolus 3 mg/kg (two dogs) or 10 mg/kg (third dog), initial rates 440-530 cycles/min)	termination of atrial arrhythmia (atrial flutter; i.v. bolus 3 mg/kg, in two of three dogs)	termination of atrial arrhythmia (atrial flutter; i.v. bolus 10 mg/kg, in the third of three dogs)
230	COc1ccc(-n2nc(Sc3ccc(Cl)cc3)c(C)c(C#N)c2=O)cc1 [Compound A, 6-(4-Chlorophenylthio)-2-(4-methoxyphenyl)-5-methyl-3-oxo-2,3-dihydropyridazine-4-carbonitrile]	–	–	–	–	–	–
120	COc1ccc(-n2nc(Sc3ccc(C)cc3)c(C)c(C#N)c2=O)cc1 [Compound B]	–	–	–	–	–	–

Structure (SMILES)	IC50 (hKv1.5) [nM]	atrial effective refractory period, post-treatment (atrial flutter; at doses effective in terminating atrial arrhythmia, increase from 138±5 msec pretreatment) [ms]	effect on atrioventricular nodal or ventricular function (atrial flutter; dog, in vivo)	time to termination of atrial arrhythmia after test agent administration (atrial flutter; i.v. bolus 3 mg/kg (two dogs) or 10 mg/kg (third dog)) [s]	atrial rate during atrial flutter (atrial flutter; i.v. bolus 3 mg/kg (two dogs) or 10 mg/kg (third dog), initial rates 440-530 cycles/min)	termination of atrial arrhythmia (atrial flutter; i.v. bolus 3 mg/kg, in two of three dogs)	termination of atrial arrhythmia (atrial flutter; i.v. bolus 10 mg/kg, in the third of three dogs)
Cc1cc(C)c(CP(=O)(c2ccccc2)c2ccccc2)c(-c2ccc(F)c(C)c2)c1 [Compound C, 2-(Diphenylphosphinylmethyl)-4'-fluoro-3,5,3'-trimethyl-biphenyl]	278	153 ± 8	no indication of effect on atrioventricular nodal or ventricular function	10 to 120	slowed atrial rate	terminated the atrial arrhythmia	terminated the atrial arrhythmia
